The structures appear in SMILES notation. Where two headings read alike, the source gives them in different places.

For one test, the target named is T1, CDK2/CycE (Homo sapiens, UniProt P24941).
T1 construct: GST; purchased ProQinase GmbH (Freiburg, Germany); host or cells: insect cells (Sf9)
The test can be described thus: CDK2/CycE high ATP kinase assay (TR-FRET, 2 mM ATP). As to conditions: Method 2b. Format: biochemical. The method, boiled down: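 Recombinant GST-tagged human CDK2 and CycE from Sf9 cells (about 10 ng/ml), biotinylated peptide substrate, 2 mM ATP, Tris pH 8.0 buffer; compound pre-incubated 15 min at 22° C. Phospho-substrate detected by TR-FRET with anti-RB(pSer807/pSer811) antibody, 665/622 nm ratio; normalised to no-inhibitor and no-enzyme controls.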
In general terms: In TR-FRET formats the signal depends on donor and acceptor labels being close together.

A further test concerns A2780 cells. The test can be described thus: Proliferation assay, A2780. The test is classed as cell-based, human. As to conditions: 72-hour exposure, Cell Titre-Glo, read-out: Inhibition of A2780 cell proliferation IC50. Here is the method:
Cultivated tumour cells (HeLa, human cervical tumour cells, ATCC CCL-2; NCI-H460, human non-small cell lung carcinoma cells, ATCC HTB-177; DU 145, hormone-independent human prostate carcinoma cells, ATCC HTB-81; HeLa-MaTu-ADR, multidrug-resistant human cervical carcinoma cells, EPO-GmbH Berlin; Caco-2, human colorectal carcinoma cells, ATCC HTB-37; B16F10, mouse melanoma cells, ATCC CRL-6475) were plated at a density of 5,000 cells/well (DU145, HeLa-MaTu-ADR), 3,000 cells/well (NCI-H460, HeLa), 1,500 cells/well (Caco-2), or 1,000 cells/well (B16F10) in a 96-well multititer plate in 200 μL of their respective growth medium supplemented 10% fetal calf serum. After 24 hours, the cells of one plate (zero-point plate) were stained with crystal violet (see below), while the medium of the other plates was supplemented with the test substances in various concentrations (0 μM, as well as in the range of 0.0001-10 μM; the final concentration of the solvent dimethyl sulfoxide was adjusted to 0.1%) using a Hewlett-Packard HP D300 Digital Dispenser. The cells were incubated for 4 days in the presence of test substances. Cell proliferation was determined by staining the cells with crystal violet: the cells were fixed by adding 20 μl/measuring point of an 11% glutaric aldehyde solution for 15 minutes at room temperature. After three washing cycles of the fixed cells with water, the plates were dried at room temperature. The cells were stained by adding 100 μl/measuring point of a 0.1% crystal violet solution (pH 3.0). After three washing cycles of the stained cells with water, the plates were dried at room temperature. The dye was dissolved by adding 100 μl/measuring point of a 10% acetic acid solution. The extinction was determined by photometry at a wavelength of 595 nm. The change of cell number, in percent, was calculated by normalization of the measured values to the extinction values of the zero-point plate (=0%) and the extinction of the untreated ([…]) cells (=100%). The IC50 values (inhibitory concentration at 50% of maximal effect) were determined by means of a 4 parameter fit. A2780 human ovarian carcinoma cells (ECACC #93112519) and non-adherent MOLM-13 human acute myeloid leukemia cells (DSMZ ACC 554) were seeded at a density of 3,000 cell/well (A2780) or 5,000 cells/well (MOLM-13) in a 96-well multititer plate in 150 μL of growth medium supplemented 10% fetal calf serum. After 24 hours, cell viability of one plate (zero-point plate) was determined with the Cell Titre-Glo Luminescent Cell Viability Assay (Promega), while the medium of the other plates was supplemented with the test substances in various concentrations (0 μM, as well as in the range of 0.0001-10 μM; the final concentration of the solvent dimethyl sulfoxide was adjusted to 0.1%) using a Hewlett-Packard HP D300 Digital Dispenser. Cell viability was assessed after 72-hour exposure with the Cell Titre-Glo Luminescent Cell Viability Assay (Promega). IC50 values (inhibitory concentration at 50% of maximal effect) were determined by means of a 4 parameter fit on measurement data which were normalized to vehicle (DMSO) treated cells (=100%) and measurement readings taken immediately before compound exposure (=0%).

Consider `CS(=N)(=O)Cc1cc2cc(c1)OCCCOc1cc(ccc1F)-c1nc(ncc1F)N2` (racemic) [Example 10, (rac)-3,19-difluoro-10-[(S-methylsulfonimidoyl)methyl]-13,17-dioxa-5,7,24-triazatetracyclo[16.3.1.1^2,6.1^8,12]tetracosa-1(22),2(24),3,5,8(23),9,11,18,20-nonaene], for which the IC50 was 4750 nM against CDK2/CycE and 48 nM with A2780 cells (Homo sapiens, A2780, 72 h).
As to `CC1CCCOc2cc(ccc2F)-c2cc(ncc2F)Nc2cc(CS(C)(=N)=O)cc(n2)O1` (single isomer, unassigned) [Example 17, 3,20-difluoro-14-methyl-10-[(S-methylsulfonimidoyl)methyl]-13,18-dioxa-5,7,24-triazatetracyclo[17.3.1.1^2,6.1^8,12]pentacosa-1(23),2(25),3,5,8(24),9,11,19,21-nonaene], the IC50 at CDK2/CycE came to 132 nM; in the test on A2780 cells it was 6 nM.
On the same counts, the results for `CC1CCCCOc2cc(ccc2F)-c2cc(ncc2F)Nc2cc(CS(C)(=N)=O)cc(n2)O1` (single isomer, unassigned) [Example 22, 3,21-difluoro-14-methyl-10-[(S-methylsulfonimidoyl)methyl]-13,19-dioxa-5,7,25-triazatetracyclo[18.3.1.1^2,6.1^8,12]hexacosa-1(24),2(26),3,5,8(25),9,11,20,22-nonaene] are 501 nM and 0.7 nM.
As for `CC1CCCOc2cc(ccc2F)-c2cc(ncc2F)Nc2cc(CS(C)(=O)=O)cc(n2)O1` (racemic) [Example 28, 3,20-difluoro-14-methyl-10-[(methylsulfonyl)methyl]-13,18-dioxa-5,7,24-triazatetracyclo[17.3.1.1^2,6.1^8,12]pentacosa-1(23),2(25),3,5,8(24),9,11,19,21-nonaene], the IC50 against CDK2/CycE came out at 360 nM; in the test with A2780 cells (Homo sapiens, A2780, 72 h) it was 16 nM.
As to `CC1CCCCOc2cc(ccc2F)-c2cc(ncc2F)Nc2cc(CS(C)(=N)=O)cc(n2)O1` (single isomer, unassigned) [Example 21, 3,21-difluoro-14-methyl-10-[(S-methylsulfonimidoyl)methyl]-13,19-dioxa-5,7,25-triazatetracyclo[18.3.1.1^2,6.1^8,12]hexacosa-1(24),2(26),3,5,8(25),9,11,20,22-nonaene], the figures for the IC50 on CDK2/CycE and with A2780 cells were 2450 nM and 27 nM, respectively.
Turning to `CC(C)(C)OC(=O)N=S(C)(=O)Cc1cc2cc(c1)OCCCCOc1cc(ccc1F)-c1nc(ncc1F)N2` (racemic) [Example 3, (rac)-tert-butyl [{[3,20-difluoro-13,18-dioxa-5,7,25-triazatetracyclo[17.3.1.1^2,6.1^8,12]pentacosa-1(23),2(25),3,5,8(24),9,11,19,21-nonaen-10-yl]methyl}(methyl)oxido-λ^6-sulfanylidene]carbamate], the IC50 on CDK2/CycE was greater than 20000 nM; in the test with A2780 cells (Homo sapiens, A2780, 72 h), 56 nM.
For `CS(=N)(=O)Cc1cc2cc(c1)OCCCCOc1c(F)ccc(c1F)-c1nc(ncc1F)N2` (racemic) [Example 8, (rac)-3,20,23-trifluoro-10-[(S-methylsulfonimidoyl)methyl]-13,18-dioxa-5,7,25-triazatetracyclo[17.3.1.1^2,6.1^8,12]pentacosa-1(23),2(25),3,5,8(24),9,11,19,21-nonaene], the IC50 on CDK2/CycE turned out to be 6520 nM; in the test with A2780 cells (Homo sapiens, A2780, 72 h) it was 68 nM.
For `CC1CCCOc2cc(ccc2F)-c2cc(ncc2F)Nc2cc(CS(C)(=N)=O)cc(n2)O1` (single isomer, unassigned) [Example 16, 3,20-difluoro-14-methyl-10-[(S-methylsulfonimidoyl)methyl]-13,18-dioxa-5,7,24-triazatetracyclo[17.3.1.1^2,6.1^8,12]pentacosa-1(23),2(25),3,5,8(24),9,11,19,21-nonaene], the IC50 at CDK2/CycE turned out to be 144 nM; with A2780 cells it was 6 nM.
Consider `CS(=N)(=O)Cc1cc2nc(c1)OCCCCOc1cc(ccc1F)-c1cc(ncc1F)N2` (racemic) [Example 2, (rac)-3,20-difluoro-10-[(S-methylsulfonimidoyl)methyl]-13,18-dioxa-5,7,24-triazatetracyclo[17.3.1.1^2,6.1^8,12]pentacosa-1(23),2(25),3,5,8(24),9,11,19,21-nonaene], for which the IC50 against CDK2/CycE turned out to be 737 nM; in the test on A2780 cells (Homo sapiens, A2780, 72 h) it was 9 nM.
For `CS(=N)(=O)Cc1cc2cc(c1)OCCCCCOc1cc(ccc1F)-c1nc(ncc1F)N2` (racemic) [Example 6, (rac)-3,21-difluoro-10-[(S-methylsulfonimidoyl)methyl]-13,19-dioxa-5,7,26-triazatetracyclo[18.3.1.1^2,6.1^8,12]hexacosa-1(24),2(26),3,5,8(25),9,11,20,22-nonaene], in that order: 16200 nM and 39 nM.
Regarding `CC(C)(C)OC(=O)N=S(C)(=O)Cc1cc2cc(c1)OCCCCCOc1cc(ccc1F)-c1nc(ncc1F)N2` (racemic) [Example 5, (rac)-tert-butyl [{[3,21-difluoro-13,19-dioxa-5,7,26-triazatetracyclo[18.3.1.1^2,6.1^8,12]hexacosa-1(24),2(26),3,5,8(25),9,11,20,22-nonaen-10-yl]methyl}(methyl)oxido-λ^6-sulfanylidene]carbamate], the IC50 was greater than 20000 nM against CDK2/CycE and greater than 100 nM in the test on A2780 cells (Homo sapiens, A2780, 72 h).
For `CS(=N)(=O)Cc1cc2cc(c1)OCCCCOc1cc(ccc1F)-c1nc(ncc1F)N2` (racemic) [Example 4, (rac)-3,20-difluoro-10-[(S-methylsulfonimidoyl)methyl]-13,18-dioxa-5,7,25-triazatetracyclo[17.3.1.1^2,6.1^8,12]pentacosa-1(23),2(25),3,5,8(24),9,11,19,21-nonaene], in that order: 1540 nM and 41 nM.

The values are drawn from US11254690B2, “PTEFb inhibiting macrocyclic compounds” (BAYER AKTIENGESELLSCHAFT, priority 2017, dated 2022).
